In patent US12514862B2, “Testosterone containing pharmaceutical composition” (Diurnal Limited, priority 2020, dated 2026):

Assays:
[1] = DITEST-001 single dose cross-over study: serum total testosterone pharmacokinetics; format: in vivo, human; conditions: DITEST both doses fed and 200 mg fasted; testosterone undecanoate fed; hypogonadal men
Description: (§1) The study was conducted in male participants from 18 to 80 years of age requiring testosterone replacement therapy for primary or secondary hypogonadism. The study was a randomized, active control, single dose, 2-way cross-over study in 2 cohorts. In each cohort participants who met the entry criteria at screening and baseline were randomized to one of 2 sequences:
(§2) Cohort 1: single dose of 120 mg (3×40 mg) DITEST followed by a single dose of 80 mg (2×40 mg) testosterone undecanoate or a single dose of 80 mg (2×40 mg) testosterone undecanoate followed by a single dose of 120 mg (3×40 mg) DITEST. The 2 treatments were separated by a minimum of a 7-day washout period, with both treatments given in the fed state.
(§3) Cohort 2: single dose of 200 mg (5×40 mg) DITEST (fed) followed by a single dose of 200 mg DITEST (fasted) or a single dose of 200 mg DITEST (fasted) followed by a single dose of 200 mg (5×40 mg) DITEST (fed). The 2 treatments were separated by a minimum of a 7-day washout period.
(§4) Twelve participants were to be recruited into each cohort (note: participants from Cohort 1 could be entered into Cohort 2 after a washout period of at least 3 months between cohorts). Participants were not recruited into Cohort 2 until the results of participants treated in Cohort 1 had been evaluated (this review determined if the intended dose for Cohort 2 needed to be adjusted). […]

[2] = DITEST-001 study: safety (TEAEs, SAEs, ECG, vital signs); format: in vivo, human
Description: as §1, §2, §3
Twelve participants were to be recruited into each cohort (note: participants from Cohort 1 could be entered into Cohort 2 after a washout period of at least 3 months between cohorts). Participants were not recruited into Cohort 2 until the results of participants treated in Cohort 1 had been evaluated (this review determined if the intended dose for Cohort 2 needed to be adjusted). No other testosterone treatments were allowed for the duration of each cohort (including the washout periods) (note: participants who entered Cohort 1 were able to revert to their usual testosterone treatment, if applicable, on completion of this cohort and prior to screening for Cohort 2, if applicable). Each participant was required to attend the study site for a minimum of either 4 or 5 visits per cohort: a screening assessment, an evaluation of baseline testosterone levels after the washout period from the participant's current medication (only for participants currently on testosterone replacement therapy), both dosing days, and a follow-up visit at the end of the study. On each dosing day, participants were to remain in the study site and PK blood and saliva samples were taken at −0.5, −0.25 (Cohort 1 only), 0, 0.5, 1, 1.5, 2, 2.5, 3, 3.5, 4, 4.5, 5, 5.5, 6, 7, 8, and 10 hours. Further PK blood and saliva samples could be taken at up to 2 additional timepoints per period if deemed necessary based on emerging data. […] If necessary, for practical reasons, participants could stay overnight at the study site or at a nearby hotel the night before and/or the night after the dosing days.
• Testosterone serum concentrations after administration of a single dose of 120 mg or 200 mg DITEST and 80 mg testosterone undecanoate in the fed state, as measured by the primary PK parameters of maximum serum concentration (Cmax) and the area under the curve from 0 to 10 hours (AUC0-10). Secondary Endpoints • Testosterone serum concentrations after administration of a single 200 mg dose of DITEST in the fed and fasted states, as measured by the primary PK parameters of Cmax and AUC0-10. • AEs observed throughout the study. • Changes during the study in vital signs, ECG and safety laboratory data. Exploratory Endpoints: • To assess the levels of testosterone and DHT in serum. • To assess the levels of testosterone and testosterone undecanoate in the lipid and aqueous fractions of blood (testosterone undecanoate only measured in participants in the testosterone undecanoate arm). • To assess the levels of intact testosterone undecanoate in serum for participants who received testosterone undecanoate. • To compare testosterone concentrations in venous and capillary blood samples collected using the Mitra microsampling device with serum concentrations. • To compare the concentrations of testosterone in saliva with serum concentrations. • To evaluate the concentrations of androstenedione in saliva Statistical Methods […]

[3] = DITEST-001 study: serum testosterone undecanoate and aqueous/lipid fractions of serum; format: in vivo, human
Source text: There is an unmet need for a native oral testosterone therapy for men with androgen (testosterone) deficiency. Current therapy for most hypogonadal patients in Europe and the United States of America (USA) is with either intramuscular injections or gels. These therapies have the disadvantages of pain with injections, skin reactions, and potential spread to partners with gels. At the time this study was designed, there was only one oral formulation of testosterone undecanoate on the market in the UK, but at that time this was not approved in the USA. DITEST is a novel formulation of native testosterone. […] Testosterone undecanoate is considered mainly absorbed through intestinal lymphatics, along with dietary lipids, whilst DITEST was formulated to permit absorption without the requirement for dietary lipids. To examine the proportions absorbed through lymphatics, the aqueous and lipid fractions of serum were separated for the measurement of serum testosterone. Since this was a first-in-human study, participants were closely monitored as inpatients during dosing. […]
as §4
• Testosterone serum concentrations after administration of a single dose of 120 mg or 200 mg DITEST and 80 mg testosterone undecanoate in the fed state, as measured by the primary PK parameters of maximum serum concentration (Cmax) and the area under the curve from 0 to 10 hours (AUC0-10). Secondary Endpoints • Testosterone serum concentrations after administration of a single 200 mg dose of DITEST in the fed and fasted states, as measured by the primary PK parameters of Cmax and AUC0-10. • AEs observed throughout the study. • Changes during the study in vital signs, ECG and safety laboratory data. […]

[4] = cited from earlier work

SMILES	Serum testosterone levels following dosing [1]	QT prolongation, reported as related to study intervention ([2]; Cohort 1: testosterone undecanoate 80 mg and DITEST 120 mg)	Total number of TEAEs reported ([2]; DITEST 120 mg fed, 200 mg fed and 200 mg fasted, testosterone undecanoate 80 mg fed)	Mean change in diastolic blood pressure ([2]; single doses) [mmHg]	Mean change in heart rate ([2]; single doses) [bpm]	Mean change in systolic blood pressure ([2]; single doses) [mmHg]	SAEs or severe AEs ([2]; single doses)	Lipid fraction of serum testosterone undecanoate as part of total serum measurement of testosterone undecanoate ([3]; after 80 mg testosterone undecanoate)	Serum testosterone undecanoate levels relative to the testosterone levels ([3]; after dosing with 80 mg testosterone undecanoate) [fold]	Lipid fraction of testosterone relative to the serum concentration ([3]; single oral dose)	Non-aqueous Solubility, Alcohol ([4]; (wt/vol) at 20° C.) [in 5 parts]	Non-aqueous Solubility, Chloroform ([4]; (wt/vol) at 20° C.) [in 2 parts]	Non-aqueous Solubility, Dehydrated alcohol ([4]; (wt/vol) at 20° C.) [in 6 parts]	Non-aqueous Solubility, Dioxane ([4]; (wt/vol) at 20° C.)	Non-aqueous Solubility, Ether ([4]; (wt/vol) at 20° C.) [in 100 parts]	Non-aqueous Solubility, Ethyl oleate ([4]; (wt/vol) at 20° C.)	Non-aqueous Solubility, Vegetable oils ([4]; (wt/vol) at 20° C.)	Aqueous Solubility ([4]; at 20° C. in water)
CCCCCCCCCCC(=O)O[C@H]1CC[C@H]2[C@@H]3CCC4=CC(=O)CC[C@]4(C)[C@H]3CC[C@]12C [Testosterone Undecanoate, testosterone undecanoate]	within the physiological range	One participant had QT prolongation	8	1.5	8.5	12.8	One SAE	over half	10	approximately 1/10	–	–	–	–	–	–	–	–
C[C@]12CC[C@H]3[C@@H](CCC4=CC(=O)CC[C@@]43C)[C@@H]1CC[C@@H]2O [Testosterone, (8R,9S,10R,13S,14S,17S)-17-hydroxy-10,13-dimethyl-1,2,6,7,8,9,11,12,14,15,16,17-dodecahydrocyclopent a[a]phenanthren-3-one]	–	–	–	–	–	–	–	–	–	–	1	1	1	soluble	1	slightly soluble	soluble	<1 mg/mL (insoluble) at 20 °C in water
